In patent publication US4332794A, “6"-Deoxydibekacin, 4",6"-dideoxydibekacin and 1-N-aminoacyl derivatives thereof, and the production of these new compounds” (Zaidan Hojin Biseibutsu Kagaku Kenkyu Kai, priority 1979, dated 1982):
In brackets after ≈: the same amount, converted by molar mass. Where two headings read alike, the source gives them in different places.

Assays:
[1] = tested on: Escherichia coli K-12 ML 1410; test: MIC, serial dilution on nutrient agar; format: cell-based; conditions: K12ML1410, 18 h
Providencia Pv 16 = test: MIC, serial dilution on nutrient agar; format: cell-based; conditions: PV16, 18 h
[2] = tested on: Escherichia coli K-12 LA 290 R64; test: MIC, serial dilution on nutrient agar; format: cell-based; conditions: K12LA290R64, 18 h
[3] = tested on: Staphylococcus aureus APO1; test: MIC, serial dilution on nutrient agar; format: cell-based; conditions: APO1, 18 h
[4] = tested on: Pseudomonas aeruginosa K-Ps102; test: MIC, serial dilution on nutrient agar; format: cell-based; conditions: KPS102, nutrient agar, 37° C., 18 hours, read-out: MIC
[5] = tested on: Bacillus cereus ATCC 10702; test: MIC, serial dilution on nutrient agar; format: cell-based; conditions: ATCC10702, nutrient agar, 37° C., 18 hours, read-out: MIC
[6] = tested on: Mycobacterium smegmatis ATCC 607; test: MIC, serial dilution on nutrient agar; format: cell-based; conditions: Mycolicibacterium smegmatis, ATCC607, 18 h
[7] = tested on: Escherichia coli JR66/W677; test: MIC, serial dilution on nutrient agar; format: cell-based; conditions: JR66/W677, 18 h
[8] = tested on: Staphylococcus epidermidis 109; test: MIC, serial dilution on nutrient agar; format: cell-based; conditions: Staphylococcus epidermidis, 109, 18 h
Salmonella typhi F63 = test: MIC, serial dilution on nutrient agar; format: cell-based; conditions: Salmonella enterica, 18 h
Escherichia coli NIHJ = test: MIC, serial dilution on nutrient agar; format: cell-based; conditions: 18 h
Sarcina lutea PCI 1001 = test: MIC, serial dilution on nutrient agar; format: cell-based; conditions: Micrococcus luteus
[9] = tested on: Pseudomonas aeruginosa A3; test: MIC, serial dilution on nutrient agar; format: cell-based; conditions: A3, 18 h
[10] = tested on: Salmonella enteritidis 1891; test: MIC, serial dilution on nutrient agar; format: cell-based; conditions: Salmonella enterica
[11] = tested on: Pseudomonas aeruginosa No. 12; test: MIC, serial dilution on nutrient agar; format: cell-based; conditions: NO.12, nutrient agar, 37° C., 18 hours, read-out: MIC
[12] = tested on: Pseudomonas aeruginosa TI-13; test: MIC, serial dilution on nutrient agar; format: cell-based
Bacillus anthracis = test: microbe, parasite or virus in culture; format: cell-based; conditions: 18 h
[13] = tested on: Bacillus subtilis PCI 219; test: MIC, serial dilution on nutrient agar; format: cell-based; conditions: PCI219, 37° C., 18 hours
[14] = tested on: Escherichia coli K-12 1410 R81; test: MIC, serial dilution on nutrient agar; format: cell-based; conditions: K121410R81, 18 h
[15] = tested on: Pseudomonas aeruginosa ROS134/PU21; test: microbe, parasite or virus in culture; format: cell-based; conditions: ROS134/PU21, 18 h
[16] = tested on: Bacillus subtilis NRRL B-558; test: MIC, serial dilution on nutrient agar; format: cell-based; conditions: NRRLB558, 37° C., 18 hours
[17] = tested on: Escherichia coli K-12 R 388; test: MIC, serial dilution on nutrient agar; format: cell-based; conditions: K12R388, 18 h
[18] = tested on: Pseudomonas aeruginosa 99; test: MIC, serial dilution on nutrient agar; format: cell-based
[19] = tested on: Corynebacterium bovis 1810; test: MIC, serial dilution on nutrient agar; format: cell-based
[20] = tested on: Staphylococcus aureus Smith; test: MIC, serial dilution on nutrient agar; format: cell-based; conditions: 37° C., 18 hours
Escherichia coli K-12 R5 = test: microbe, parasite or virus in culture; format: cell-based; conditions: K12R5, 18 h
Proteus rettgeri GN466 = test: MIC, serial dilution on nutrient agar; format: cell-based; conditions: Providencia rettgeri, GN466, 18 h
Proteus rettgeri GN311 = test: MIC, serial dilution on nutrient agar; format: cell-based; conditions: Providencia rettgeri
[21] = tested on: Shigella dysenteriae JS11910; test: MIC, serial dilution on nutrient agar; format: cell-based; conditions: JS11910, 18 h
[22] = tested on: Escherichia coli K-12 LA 290 R55; test: microbe, parasite or virus in culture; format: cell-based; conditions: K12LA290R55, 18 h
Escherichia coli W677 = test: MIC, serial dilution on nutrient agar; format: cell-based; conditions: W677, 18 h
[23] = tested on: Pseudomonas aeruginosa PST1; test: MIC, serial dilution on nutrient agar; format: cell-based; conditions: PST1, 18 h
Escherichia coli K-12 = test: MIC, serial dilution on nutrient agar; format: cell-based; conditions: K12, 18 h
[24] = tested on: Pseudomonas aeruginosa H9; test: MIC, serial dilution on nutrient agar; format: cell-based
[25] = tested on: Escherichia coli K-12 LA 290 R56; test: microbe, parasite or virus in culture; format: cell-based; conditions: K12LA290R56, 18 h
[26] = tested on: Klebsiella pneumoniae 22 #3038; test: MIC, serial dilution on nutrient agar; format: cell-based; conditions: 18 h
[27] = tested on: Mycrococcus flavus FDA 16; test: MIC, serial dilution on nutrient agar; format: cell-based
Escherichia coli JR255 = test: microbe, parasite or virus in culture; format: cell-based; conditions: JR255, 18 h
intravenous LD50 in mice = conditions: mouse, in vivo, estimated
[28] = tested on: Pseudomonas aeruginosa H11; test: MIC, serial dilution on nutrient agar; format: cell-based
[29] = tested on: Pseudomonas aeruginosa B-13; test: MIC, serial dilution on nutrient agar; format: cell-based; conditions: B13, 18 h
[30] = nutrient agar, 37° C., 18 hours, read-out: MIC

C[C@@H]1C[C@H](N)[C@@H](O)[C@@H](O[C@@H]2[C@@H](O)[C@H](O[C@H]3O[C@H](CN)CC[C@H]3N)[C@@H](N)C[C@H]2N)O1 [4",6"-DDKB, 4",6"-dideoxydibekacin]
MIC [1]: 1.56 µg/mL (≈ 3.72 µM) | MIC (Providencia Pv 16): > 100 µg/mL | MIC [2]: 25 µg/mL (≈ 59.6 µM) | MIC [3]: 3.13 µg/mL (≈ 7.46 µM) | MIC [4]: 25 µg/mL (≈ 59.6 µM) | MIC [5]: 6.25 µg/mL (≈ 14.9 µM) | MIC [6]: 1.56 µg/mL (≈ 3.72 µM) | MIC [7]: 100 µg/mL (≈ 238 µM) | MIC [8]: 3.13 µg/mL (≈ 7.46 µM) | MIC (Salmonella typhi F63): 0.78 µg/mL (≈ 1.86 µM) | MIC (Escherichia coli NIHJ): 1.56 µg/mL (≈ 3.72 µM) | MIC (Sarcina lutea PCI 1001; PCI1001, 18 h): 50 µg/mL (≈ 119 µM) | MIC [9]: 3.13 µg/mL (≈ 7.46 µM) | MIC [10, 30]: 6.25 µg/mL (≈ 14.9 µM) | MIC [11]: 12.5 µg/mL (≈ 29.8 µM) | MIC ([12]; TI13, 18 h): 100 µg/mL (≈ 238 µM) | MIC (Bacillus anthracis): < 0.2 µg/mL | MIC [13]: < 0.2 µg/mL | MIC [14]: 1.56 µg/mL (≈ 3.72 µM) | MIC [15]: > 100 µg/mL | MIC [16]: < 0.2 µg/mL | MIC [17]: 1.56 µg/mL (≈ 3.72 µM) | MIC ([18]; Pseudomonas aeruginosa, 99, 18 h): > 100 µg/mL | MIC ([19]; Corynebacterium bovis, 1810, 18 h): 50 µg/mL (≈ 119 µM) | MIC [20]: < 0.2 µg/mL | MIC (Escherichia coli K-12 R5): > 100 µg/mL | MIC (Proteus rettgeri GN466): 1.56 µg/mL (≈ 3.72 µM) | MIC (Proteus rettgeri GN311; GN311, 18 h): 3.13 µg/mL (≈ 7.46 µM) | MIC [21]: 3.13 µg/mL (≈ 7.46 µM) | MIC [22]: 100 µg/mL (≈ 238 µM) | MIC (Escherichia coli W677): 0.78 µg/mL (≈ 1.86 µM) | MIC [23]: > 100 µg/mL | MIC (Escherichia coli K-12): 1.56 µg/mL (≈ 3.72 µM) | MIC ([24]; H9, 18 h): 100 µg/mL (≈ 238 µM) | MIC [25]: 50 µg/mL (≈ 119 µM) | MIC [26]: 100 µg/mL (≈ 238 µM) | MIC ([27]; 18 h): 50 µg/mL (≈ 119 µM) | MIC (Escherichia coli JR255): 100 µg/mL (≈ 238 µM) | LD50 (intravenous LD50 in mice): > 60 mg/kg | MIC ([28]; H11, 18 h): 100 µg/mL (≈ 238 µM) | MIC [29]: > 100 µg/mL

C[C@H]1O[C@H](O[C@@H]2[C@@H](O)[C@H](O[C@H]3O[C@H](CN)CC[C@H]3N)[C@@H](N)C[C@H]2N)[C@H](O)[C@@H](N)[C@@H]1O [6"-DDKB, 6"-deoxydibekacin]
MIC [1]: 3.13 µg/mL (≈ 7.19 µM) | MIC (Providencia Pv 16): > 100 µg/mL | MIC [2]: 25 µg/mL (≈ 57.4 µM) | MIC [3]: 3.13 µg/mL (≈ 7.19 µM) | MIC [4]: 6.25 µg/mL (≈ 14.4 µM) | MIC [5]: 6.25 µg/mL (≈ 14.4 µM) | MIC [6]: 0.78 µg/mL (≈ 1.79 µM) | MIC [7]: 100 µg/mL (≈ 230 µM) | MIC [8]: 1.56 µg/mL (≈ 3.58 µM) | MIC (Salmonella typhi F63): 0.39 µg/mL (≈ 0.895 µM) | MIC (Escherichia coli NIHJ): 1.56 µg/mL (≈ 3.58 µM) | MIC (Sarcina lutea PCI 1001; PCI1001, nutrient agar, 37° C., 18 hours, read-out: MIC): 25 µg/mL (≈ 57.4 µM) | MIC [9]: 1.56 µg/mL (≈ 3.58 µM) | MIC ([10]; 18 h): 3.13 µg/mL (≈ 7.19 µM) | MIC [11]: 6.25 µg/mL (≈ 14.4 µM) | MIC ([12]; TI13, nutrient agar, 37° C., 18 hours, read-out: MIC): 12.5 µg/mL (≈ 28.7 µM) | MIC (Bacillus anthracis): 0.39 µg/mL (≈ 0.895 µM) | MIC [13]: < 0.2 µg/mL | MIC [14]: 1.56 µg/mL (≈ 3.58 µM) | MIC [15]: > 100 µg/mL | MIC [16]: < 0.2 µg/mL | MIC [17]: 1.56 µg/mL (≈ 3.58 µM) | MIC ([18]; Pseudomonas aeruginosa, 99, nutrient agar, 37° C., 18 hours, read-out: MIC): 12.5 µg/mL (≈ 28.7 µM) | MIC ([19]; Corynebacterium bovis, 1810, nutrient agar, 37° C., 18 hours, read-out: MIC): 25 µg/mL (≈ 57.4 µM) | MIC [20]: < 0.2 µg/mL | MIC (Escherichia coli K-12 R5): 100 µg/mL (≈ 230 µM) | MIC (Proteus rettgeri GN466): 3.13 µg/mL (≈ 7.19 µM) | MIC (Proteus rettgeri GN311; GN311, nutrient agar, 37° C., 18 hours, read-out: MIC): 6.25 µg/mL (≈ 14.4 µM) | MIC [21]: 3.13 µg/mL (≈ 7.19 µM) | MIC [22]: > 100 µg/mL | MIC (Escherichia coli W677): 1.56 µg/mL (≈ 3.58 µM) | MIC [23]: > 100 µg/mL | MIC (Escherichia coli K-12): 1.56 µg/mL (≈ 3.58 µM) | MIC ([24]; H9, nutrient agar, 37° C., 18 hours, read-out: MIC): 12.5 µg/mL (≈ 28.7 µM) | MIC [25]: 25 µg/mL (≈ 57.4 µM) | MIC [26]: 100 µg/mL (≈ 230 µM) | MIC [27, 30]: 25 µg/mL (≈ 57.4 µM) | MIC (Escherichia coli JR255): > 100 µg/mL | LD50 (intravenous LD50 in mice): > 60 mg/kg | MIC ([28]; H11, nutrient agar, 37° C., 18 hours, read-out: MIC): 12.5 µg/mL (≈ 28.7 µM) | MIC [29]: 50 µg/mL (≈ 115 µM)
